Assays:
[1] = Open-label single-arm study in MELAS (NCT04475549): safety and tolerability; type: in vivo, human; conditions: 15 mg QD for 29 days, patients with MELAS
Description: This study was completed at 5 investigative sites in the United States. 8 participants completed the study. This study was an open-label, single-arm study evaluating the safety, tolerability, PK, and pharmacodynamics (PD) of Compound I when administered for up to 29 days to participants diagnosed with MELAS. Because this was the first study evaluating Compound I in a patient population, the primary objective was safety and tolerability. The overall study duration for participants was a maximum of 75 days, including the screening, treatment and follow up periods (ClinicalTrials.gov identifier NCT04475549).
The primary objective of the trial was to evaluate the safety and tolerability of Compound I when administered to a patient population of subjects with MELAS, by measuring AEs, SAEs and TEAEs leading to drug discontinuation.
Compound I is a CNS-active investigational drug. Although Compound I and other similar drugs in this class have not been associated with an increased risk of suicidal thinking or behavior, it was considered it important to monitor for such ideation or behavior before and during this clinical study. Therefore, participants were appropriately monitored and closely observed for suicidal ideation and behavior or any other unusual change in behavior. […]
A complete physical examination was to include examination and assessment of the following: general appearance, lymph nodes, nervous system; cardiovascular system; head, eyes, ears, nose, throat and skin; respiratory system, neck, mental status, abdomen/liver/spleen and musculoskeletal system. […] Clinically relevant findings that were present before study drug initiation on Day 1 were recorded as part of the participant's medical history. Beginning after study drug initiation on Day 1, new clinically relevant findings or worsening of an earlier finding were recorded as an AE. Height (cm) was measured only at Screening. Weight (kg) was recorded throughout the study. Body mass index was calculated and recorded at Screening.
All BP and pulse measurements were obtained with an automated BP device (left arm was preferred) prior to blood draws (or ≥10 m after a blood draw, if necessary). Supine BP was taken at Screening (only) and recorded as the average of 2 measurements obtained at 2-minute intervals after the participant had rested quietly in a semi-recumbent/supine position for ≥5 minutes. Orthostatic vital signs were taken at all scheduled visits and participant was to rest quietly in a supine/semi-recumbent position for ≥5 minutes before supine BP and pulse measurements were recorded, then assume sitting position for ≥1 minute, and finally assume a standing position for 2 (±1) minutes before standing measurements were recorded. […]

[2] = test system: participants diagnosed with MELAS; assay: MELAS study: fMRI-BOLD during resting state and visual stimulus; type: in vivo, human
Method: Two exploratory functional neuroimaging modalities, arterial spin labeling (ASL) and functional magnetic resonance imaging (fMRI), were used to measure the potential PD effects of Compound I in the brain. While ASL quantifies regional CBF during the resting state, fMRI is a relative measure based on the blood-oxygen-level-dependent (BOLD) effect and was conducted during both a resting state and during a visual stimulus to measure brain activity.
Each individual MRI scanning session took approximately 45 minutes (maximum of ˜1 hour).

SMILES: Fc1ccccc1Cc1nc(-c2nc(C(F)(F)F)n[nH]2)cn2ccnc12 [Compound I, zagociguat]
- SAEs [1]: no SAEs observed
- adverse events leading to treatment discontinuation [1]: no adverse events leading to treatment discontinuation
- safety signals on clinical labs, vital signs, ECGs, or suicidal rating scale [1]: No safety signals
- tolerability [1]: well tolerated
- task-based functional MRI (visual activation, flashing checkerboard) ([2]; Day 29 compared to screening and Day 1): increased activation of voxels in the occipital region
- task-free functional MRI during resting state, connectivity ([2]; Day 29 compared to screening and day 1): enhanced connecitivity

— patent US20250367191A1, “TREATMENT OF MITOCHONDRIAL DISEASES WITH A CNS-PENETRANT SGC STIMULATOR ZAGOCIGUAT” (Tisento Therapeutics Inc., priority 2022, published 2025)
